tested on: P. falciparum K1 (strain resistant to chloroquine and pyrimethamine), erythrocytic stages; assay: Plasmodium falciparum in vitro assay, [3H] hypoxanthine incorporation; format: cell-based; details: Plasmodium falciparum, K1, P. falciparum strain K1; [3H] hypoxanthine incorporation; read-out: IC50 (nM) on K1
How it was run: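 K1 strain parasites grown in human red cells, 2.5% haematocrit, 0.3% parasitaemia, 37 °C, 4% CO2/3% O2; compounds in seven serial doubling dilutions.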

SMILES | IC50 [nM]
CC(=O)N1CCN(c2ccc(CN(C(=O)C=Cc3ccc(C(F)(F)F)cc3)[C@@H](Cc3ccccc3)C(=O)N(C)CCN(C)Cc3cccc(OCCO)c3)cc2)CC1 [Example 242, (S)-N-[4-(4-Acetyl-piperazin-1-yl)-benzyl]-N-{1-[(2-{[3-(2-hydroxy-ethoxy)-benzyl]-methyl-amino}-ethyl)-methyl-carbamoyl]-2-phenyl-ethyl}-3-(4-trifluoromethyl-phenyl)-acrylamide] | 14
COCCN(C)C(=O)[C@H](Cc1ccccc1)N(Cc1ccc(N2CCOCC2)cc1)C(=O)C=Cc1cc(C)nn1C [Example 59, (S)-3-(2,5-Dimethyl-2H-pyrazol-3-yl)-N-{1-[(2-methoxy-ethyl)-methyl-carbamoyl]-2-phenyl-ethyl}-N-(4-morpholin-4-yl-benzyl)-acrylamide] | 121
COCCN(C)C(=O)[C@H](Cc1ccccc1)N(Cc1ccc(-c2cncnc2)cc1)C(=O)C=Cc1ccc(OC)nn1 [Example 126, (S)-N-{1-[(2-Methoxy-ethyl)-methyl-carbamoyl]-2-phenyl-ethyl}-3-(6-methoxy-pyridazin-3-yl)-N-(4-pyrimidin-5-yl-benzyl)-acrylamide] | 160
CN(CCN(C)C(=O)[C@H](Cc1ccccc1)N(Cc1ccc(-c2ccccn2)cc1)C(=O)C=Cc1ccc(C(F)(F)F)cc1)Cc1ccoc1 [Example 222, (S)-N-(1-{[2-(Furan-3-ylmethyl-methyl-amino)-ethyl]-methyl-carbamoyl}-2-phenyl-ethyl)-N-(4-pyridin-2-yl-benzyl)-3-(4-trifluoromethyl-phenyl)-acrylamide] | 13
CCN(CC)c1ccc(CN(C)CCN(C)C(=O)[C@H](Cc2ccccc2)N(Cc2ccc(N3CCOCC3)cc2)C(=O)C=Cc2ccc(C(F)(F)F)cc2)cc1 [Example 257, (S)-N-[1-({2-[(4-Diethylamino-benzyl)-methyl-amino]-ethyl}-methyl-carbamoyl)-2-phenyl-ethyl]-N-(4-morpholin-4-yl-benzyl)-3-(4-trifluoromethyl-phenyl)-acrylamide] | 65
COCCN(C)C(=O)[C@H](Cc1ccccc1)N(Cc1ccc(N2CCOCC2)nc1)C(=O)C=Cc1ccc(OC)cc1 [Example 159, (S)-N-{1-[(2-Methoxy-ethyl)-methyl-carbamoyl]-2-phenyl-ethyl}-3-(4-methoxy-phenyl)-N-(6-morpholin-4-yl-pyridin-3-ylmethyl)-acrylamide] | 49
COCCN(C)C(=O)[C@H](Cc1ccccc1)N(Cc1ccc(-c2cccnc2)cc1)C(=O)C=Cc1nc(C)oc1C [Example 133, (S)-3-(2,5-Dimethyl-oxazol-4-yl)-N-{1-[(2-methoxy-ethyl)-methyl-carbamoyl]-2-phenyl-ethyl}-N-(4-pyridin-3-yl-benzyl)-acrylamide] | 82
CC(=O)N1CCN(c2ccc(CN(C(=O)C=Cc3ccc(C(F)(F)F)cc3)[C@@H](Cc3ccccc3)C(=O)N(C)CCOCc3cccc(C#N)c3)cc2)CC1 [Example 185, (S)-N-[4-(4-Acetyl-piperazin-1-yl)-benzyl]-N-(1-{[2-(3-cyano-benzyloxy)-ethyl]-methyl-carbamoyl}-2-phenyl-ethyl)-3-(4-trifluoromethyl-phenyl)-acrylamide, formic acid] | 19
Cc1ccc(CN(C)CCN(C)C(=O)[C@H](Cc2ccccc2)N(Cc2ccc(-c3ccccn3)cc2)C(=O)C=Cc2ccc(C(F)(F)F)cc2)c(C)c1 [Example 234, (S)-N-[1-({2-[(2,4-Dimethyl-benzyl)-methyl-amino]-ethyl}-methyl-carbamoyl)-2-phenyl-ethyl]-N-(4-pyridin-2-yl-benzyl)-3-(4-trifluoromethyl-phenyl)-acrylamide] | 64
CN(CCN(C)C(=O)[C@H](Cc1ccccc1)N(Cc1ccc(-c2ccccn2)cc1)C(=O)C=Cc1ccc(C(F)(F)F)cc1)Cc1ccc(Br)nc1 [Example 227, (S)-N-[1-({2-[(6-Bromo-pyridin-3-ylmethyl)-methyl-amino]-ethyl}-methyl-carbamoyl)-2-phenyl-ethyl]-N-(4-pyridin-2-yl-benzyl)-3-(4-trifluoromethyl-phenyl)-acrylamide] | 18
COCCN(C)C(=O)[C@H](Cc1ccccc1)N(Cc1ccc(-c2cncnc2)cc1)C(=O)C=Cc1csnn1 [Example 125, (S)-N-{1-[(2-Methoxy-ethyl)-methyl-carbamoyl]-2-phenyl-ethyl}-N-(4-pyrimidin-5-yl-benzyl)-3-[1,2,3]thiadiazol-4-yl-acrylamide] | 439
COCCN(C)C(=O)[C@H](Cc1ccccc1)N(Cc1ccc(N2CCN(C(C)=O)CC2)cc1)C(=O)C=Cc1csc(C)n1 [Example 108, (S)-N-[4-(4-Acetyl-piperazin-1-yl)-benzyl]-N-{1-[(2-methoxy-ethyl)-methyl-carbamoyl]-2-phenyl-ethyl}-3-(2-methyl-thiazol-4-yl)-acrylamide] | 225
COCCN(C)C(=O)[C@H](Cc1ccccc1)N(Cc1ccc(-c2ccccn2)cc1)C(=O)C=Cc1ccc(C)cn1 [Example 86, (S)-N-{1-[(2-Methoxy-ethyl)-methyl-carbamoyl]-2-phenyl-ethyl}-3-(5-methyl-pyridin-2-yl)-N-(4-pyridin-2-yl-benzyl)-acrylamide] | 27
CCCCN(CCCC)CCNC(=O)[C@H](Cc1ccccc1)N(Cc1ccc(-c2ccccn2)cc1)C(=O)C=Cc1ccc(C(F)(F)F)cc1 [Example 150] | 319
CC(=O)N1CCN(c2ccc(CN(C(=O)C=Cc3ccc(C(F)(F)F)nc3)[C@@H](Cc3ccccc3)C(=O)N(C)CCOCC#N)cc2)CC1 [Example 217, (S)-N-[4-(4-Acetyl-piperazin-1-yl)-benzyl]-N-{1-[(2-cyanomethoxy-ethyl)-methyl-carbamoyl]-2-phenyl-ethyl}-3-(6-trifluoromethyl-pyridin-3-yl)-acrylamide] | 32
COCCN(C)C(=O)[C@H](Cc1ccccc1)N(Cc1ccc(-c2ccncc2)cc1)C(=O)C=Cc1sc(C)nc1C [Example 93, (S)-3-(2,4-Dimethyl-thiazol-5-yl)-N-{1-[(2-methoxy-ethyl)-methyl-carbamoyl]-2-phenyl-ethyl}-N-(4-pyridin-4-yl-benzyl)-acrylamide] | 13
CN(CCN(C)C(=O)[C@H](Cc1ccccc1)N(Cc1ccc(N2CCOCC2)cc1)C(=O)C=Cc1ccc(C(F)(F)F)cc1)Cc1ccc2c(c1)OCCN2C [Example 263, (S)-N-[1-(Methyl-{2-[methyl-(4-methyl-3,4-dihydro-2H-benzo[1,4]oxazin-7-ylmethyl)-amino]-ethyl}-carbamoyl)-2-phenyl-ethyl]-N-(4-morpholin-4-yl-benzyl)-3-(4-trifluoromethyl-phenyl)-acrylamide] | 72
O=C([C@H](Cc1ccccc1)N(Cc1ccccc1)C(=O)C=Cc1ccc(C(F)(F)F)nc1)N1CCC(Cc2ccccc2)CC1 [Example 48, (S)-N-Benzyl-N-[1-benzyl-2-(4-benzyl-piperidin-1-yl)-2-oxo-ethyl]-3-(6-trifluoromethyl-pyridin-3-yl)-acrylamide] | 8

More lines, now with the values ahead:

IC50 [nM] | SMILES
80 | CN(C)CCN(C)C(=O)[C@H](Cc1ccccc1)N(Cc1ccc(-c2ccccn2)cc1)C(=O)C=Cc1ccc(C(F)(F)F)cc1 [Example 171, (S)-N-{1-[(2-Dimethylamino-ethyl)-methyl-carbamoyl]-2-phenyl-ethyl}-N-(4-pyridin-2-yl-benzyl)-3-(4-trifluoromethyl-phenyl)-acrylamide]
413 | CN(C)C1CCN(C(=O)C(Cc2cnn(C)c2)N(Cc2ccc(-c3ccccn3)cc2)C(=O)C=Cc2ccc(C(F)(F)F)cc2)CC1 (racemic) [Example 137]
10 | COCCN(C)C(=O)[C@H](Cc1ccccc1)N(Cc1ccc(N2CCOCC2)nc1)C(=O)C=Cc1ccc(C(F)(F)F)cc1 [Example 157, (S)-N-{1-[(2-Methoxy-ethyl)-methyl-carbamoyl]-2-phenyl-ethyl}-N-(6-morpholin-4-yl-pyridin-3-ylmethyl)-3-(4-trifluoromethyl-phenyl)-acrylamide]
155 | CN(C)C1CCN(C(=O)C(Cc2cnn(C)c2)N(Cc2ccc(-c3ccncc3)cc2)C(=O)C=Cc2ccc(C(F)(F)F)cc2)CC1 (racemic) [Example 139]
26 | COCCN(C)C(=O)[C@H](Cc1ccccc1)N(Cc1ccc(-c2ccncc2)cc1)C(=O)C=Cc1ccn(C)n1 [Example 91, (S)-N-{1-[(2-Methoxy-ethyl)-methyl-carbamoyl]-2-phenyl-ethyl}-3-(1-methyl-1H-pyrazol-3-yl)-N-(4-pyridin-4-yl-benzyl)-acrylamide]
40 | CN(CCN(C)C(=O)[C@H](Cc1ccccc1)N(Cc1ccc(N2CCOCC2)cc1)C(=O)C=Cc1ccc(C(F)(F)F)cc1)Cc1cncnc1 [Example 267, (S)-N-(1-{Methyl-[2-(methyl-pyrimidin-5-ylmethyl-amino)-ethyl]-carbamoyl}-2-phenyl-ethyl)-N-(4-morpholin-4-yl-benzyl)-3-(4-trifluoromethyl-phenyl)-acrylamide]
137 | COCCN(C)C(=O)C(CN1CCN(C)CC1)N(Cc1ccc(-c2ccccn2)cc1)C(=O)C=Cc1ccc(C(F)(F)F)cc1 (racemic) [Example 278]
465 | COc1ccc(C=CC(=O)N(Cc2ccc(-c3ccncc3)cc2)[C@@H](Cc2ccccc2)C(=O)N2CCC(N(C)C)CC2)nn1 [Example 26, (S)-N-[1-Benzyl-2-(4-dimethylamino-piperidin-1-yl)-2-oxo-ethyl]-3-(6-methoxy-pyridazin-3-yl)-N-(4-pyridin-4-yl-benzyl)-acrylamide]
13 | O=C([C@H](Cc1ccccc1)N(Cc1ccc(-c2ccccn2)cc1)C(=O)C=Cc1ccc(C(F)(F)F)nc1)N1CCC(c2ccccc2)CC1 [Example 50, (S)-N-[1-Benzyl-2-oxo-2-(4-phenyl-piperidin-1-yl)-ethyl]-N-(4-pyridin-2-yl-benzyl)-3-(6-trifluoromethyl-pyridin-3-yl)-acrylamide]
340 | CN(C)C1CCN(C(=O)C(Cc2ccn(C)n2)N(Cc2ccc(-c3ccccn3)cc2)C(=O)C=Cc2ccc(C(F)(F)F)cc2)CC1 (racemic) [Example 138]
219 | COCCN(C)C(=O)C(CN1CCCC1)N(Cc1ccc(-c2ccccn2)cc1)C(=O)C=Cc1ccc(C(F)(F)F)cc1 (racemic) [Example 280]

From US20110224210A1, “NOVEL BIS-AMIDES AS ANTI-MALARIAL AGENTS” (priority 2008, published 2011)
